Assay results taken from US10738043B2, “GLS1 inhibitors for treating disease” (Board of Regents, The University of Texas System, priority 2015, dated 2020).
Read-outs that look alike come from different tables or passages of the source.

Assays:
[1] = biological target: T1, GLS1 (purified recombinant human GAC) (Homo sapiens, UniProt O94925); test: GLS1 Enzymatic Activity Assay (dual-coupled enzymatic assay); type: biochemical; settings: 50 mM potassium phosphate, 1 mM glutamine, read-out: IC50 against GLS1
T1 sequence (O94925 55-598 isoform O94925-3 limits assumed): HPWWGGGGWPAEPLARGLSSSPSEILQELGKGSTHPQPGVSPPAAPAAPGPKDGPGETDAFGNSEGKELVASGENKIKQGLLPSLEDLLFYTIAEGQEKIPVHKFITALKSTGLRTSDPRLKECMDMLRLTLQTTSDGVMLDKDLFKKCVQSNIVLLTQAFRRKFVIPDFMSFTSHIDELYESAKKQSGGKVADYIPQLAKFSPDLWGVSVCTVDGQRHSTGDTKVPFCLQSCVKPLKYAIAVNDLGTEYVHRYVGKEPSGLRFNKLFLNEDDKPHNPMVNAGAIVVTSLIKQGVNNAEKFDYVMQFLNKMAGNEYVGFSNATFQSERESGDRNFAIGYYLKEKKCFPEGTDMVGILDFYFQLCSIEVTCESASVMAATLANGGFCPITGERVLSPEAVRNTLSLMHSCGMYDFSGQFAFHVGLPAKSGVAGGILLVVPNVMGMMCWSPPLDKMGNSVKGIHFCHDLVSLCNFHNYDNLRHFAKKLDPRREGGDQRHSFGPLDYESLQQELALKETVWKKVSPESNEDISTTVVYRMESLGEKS
Experimental: GLS1 Enzymatic Activity Assay
The inhibition of purified recombinant human GAC by varying concentrations of inhibitors is assessed via a dual-coupled enzymatic assay. The glutamate produced by the glutaminase reaction is used by glutamate oxidase to produce α-ketoglutarate, ammonia, and hydrogen peroxide, with this hydrogen peroxide subsequently being used by horseradish peroxidase to produce resorufin in the presence of Amplex UltraRed. The assay buffer consisted of 50 mM HEPES (pH 7.4), 0.25 mM EDTA and 0.1 mM Triton X-100. GAC was incubated with potassium phosphate (10 minutes at room temperature) prior to incubation with inhibitor (10 minutes at room temperature). The final reaction conditions were as follows: 2 nM GAC, 50 mM potassium phosphate, 100 mU/ml glutamate oxidase (Sigma), 1 mM glutamine (Sigma), 100 mU/ml horseradish peroxidase (Sigma), 75 μM Amplex UltraRed (Life Technologies), and 1% (v/v) DMSO. The production of resorufin was monitored on a Perkin Elmer Envision plate reader (excitation 530 nm, emission 590 nm) either in a kinetics or endpoint mode (at 20 minutes). IC50 values were calculated using a four-parameter logistic curve fit.

[2] = tested on: A549 cells; test: Proliferation Assay (A549 viability, Cell Titer Fluor, 72 hours); type: cell-based; settings: read-out: EC50 against A549 cell proliferation
Experimental: A549 cells were routinely maintained in RPMI 1640 media (Gibco catalog number 11875-093) supplemented with 10% dialyzed fetal bovine serum using a humidified incubator (37° C., 5% CO2 and ambient O2). In preparation for the viability assay, cells were inoculated into 384-well black CulturPlates (Perkin Elmer) at a density of 1000 cells/well in a volume of 40 μl. Following a 24-hour incubation at 37° C., 5% CO2 and ambient 02, cells were treated with compound (10 μl) in a final DMSO concentration of 0.5% (v/v). The microplates were then incubated for 72 hours (37° C., 5% CO2 and ambient O2). Cell Titer Fluor (Promega) was subsequently added (10 μl of 6× reagent) and mixed for 15 minutes at room temperature. The plates were then incubated for 30 minutes (37° C., 5% CO2 and ambient O2) and fluorescence was subsequently read on the Perkin Elmer Envision plate reader. EC50 values were calculated using a four-parameter logistic curve fit.

Compound: Cc1cccc(CC(=O)Nc2ccc(C3CCN(c4nnc(C(=O)NCc5cc(C(F)(F)F)ccn5)s4)C3)nn2)n1 (stereo not drawn) [Example 49, 5-(3-(6-(2-(6-methylpyridin-2-yl)acetamido)pyridazin-3-yl)pyrrolidin-1-yl)-N-((4-(trifluoromethyl)pyridin-2-yl)methyl)-1,3,4-thiadiazole-2-carboxamide]
- IC50 [1]: < 100 nM
- EC50 ([2]; Homo sapiens): < 100 nM

Compound: Cc1cccc(CNC(=O)c2nnc(N3CCC(c4ccc(NC(=O)Cc5cccc(C)n5)nn4)C3)s2)n1 (stereo not drawn) [Example 50, 5-(3-(6-(2-(6-methylpyridin-2-yl)acetamido)pyridazin-3-yl)pyrrolidin-1-yl)-N-((6-methylpyridin-2-yl)methyl)-1,3,4-thiadiazole-2-carboxamide]
- IC50 [1]: < 100 nM
- EC50 ([2]; Homo sapiens): < 100 nM

Compound: Cc1cc(OC2CC(F)(F)C2)cc(CC(=O)Nc2ccc(C3CCN(c4nnc(C(=O)NCc5ccccn5)s4)C3)nn2)n1 (stereo not drawn) [Example 51, 5-(3-(6-(2-(4-(3,3-difluorocyclobutoxy)-6-methylpyridin-2-yl)acetamido)pyridazin-3-yl)pyrrolidin-1-yl)-N-(pyridin-2-ylmethyl)-1,3,4-thiadiazole-2-carboxamide]
- IC50 [1]: < 100 nM
- EC50 ([2]; Homo sapiens): < 100 nM

Compound: Cc1cc(OC2CC(F)(F)C2)cc(CC(=O)Nc2ccc(C3CCN(c4nnc(C(=O)NCc5cc(C(F)(F)F)ccn5)s4)C3)nn2)n1 (stereo not drawn) [Example 52, 5-(3-(6-(2-(4-(3,3-difluorocyclobutoxy)-6-methylpyridin-2-yl)acetamido)pyridazin-3-yl)pyrrolidin-1-yl)-N-((4-(trifluoromethyl)pyridin-2-yl)methyl)-1,3,4-thiadiazole-2-carboxamide]
- IC50 [1]: < 100 nM
- EC50 ([2]; Homo sapiens): < 100 nM

Compound: Cc1cccc(CNC(=O)c2nnc(N3CCC(c4ccc(NC(=O)Cc5cc(OC6CC(F)(F)C6)cc(C)n5)nn4)C3)s2)n1 (stereo not drawn) [Example 53, 5-(3-(6-(2-(4-(3,3-difluorocyclobutoxy)-6-methylpyridin-2-yl)acetamido)pyridazin-3-yl)pyrrolidin-1-yl)-N-((6-methylpyridin-2-yl)methyl)-1,3,4-thiadiazole-2-carboxamide]
- IC50 [1]: < 100 nM
- EC50 ([2]; Homo sapiens): < 100 nM

Compound: N-(pyridin-2-ylmethyl)-5-(1-(6-(2-(3-(trifluoromethoxy)phenyl)acetamido)pyridazin-3-yl)pyrrolidin-3-yl)-1,3,4-thiadiazole-2-carboxamide-2,2,2-trifluoroacetate [Example 10]
- IC50 [1]: < 100 nM
- EC50 [2]: 100 to 500 nM
